Target: T1, human acetyl-CoA carboxylase 2 (ACC2) (Homo sapiens, UniProt O00763)
T1 construct: The cDNA encoding amino acids 144 to 2458 of human acetyl-CoA carboxylase 2; made in house; host or cells: Sf9 insect cells (baculovirus, pFastBac1)
Experiment: Acetyl-CoA carboxylase enzyme assay (malonyl-CoA formation by LC/MS/MS)
Type: biochemical
Conditions: recombinant human ACC2 (aa 144-2458); read-out: IC50 ACC2
How it was run: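 Malonyl-CoA formation was read by LC/MS/MS MRM against a [13C3]-malonyl-CoA internal standard, after acetic acid quench. The enzyme was baculovirus/Sf9-expressed human ACC2 residues 144–2458, given 15 minutes room-temperature compound preincubation in HEPES pH 7.5 buffer with MgCl2, citrate and DTT. Substrate solution held 50 μM acetyl-CoA, 120 μM ATP and 2 mM KHCO3.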

T1 sequence (O00763 144-2458): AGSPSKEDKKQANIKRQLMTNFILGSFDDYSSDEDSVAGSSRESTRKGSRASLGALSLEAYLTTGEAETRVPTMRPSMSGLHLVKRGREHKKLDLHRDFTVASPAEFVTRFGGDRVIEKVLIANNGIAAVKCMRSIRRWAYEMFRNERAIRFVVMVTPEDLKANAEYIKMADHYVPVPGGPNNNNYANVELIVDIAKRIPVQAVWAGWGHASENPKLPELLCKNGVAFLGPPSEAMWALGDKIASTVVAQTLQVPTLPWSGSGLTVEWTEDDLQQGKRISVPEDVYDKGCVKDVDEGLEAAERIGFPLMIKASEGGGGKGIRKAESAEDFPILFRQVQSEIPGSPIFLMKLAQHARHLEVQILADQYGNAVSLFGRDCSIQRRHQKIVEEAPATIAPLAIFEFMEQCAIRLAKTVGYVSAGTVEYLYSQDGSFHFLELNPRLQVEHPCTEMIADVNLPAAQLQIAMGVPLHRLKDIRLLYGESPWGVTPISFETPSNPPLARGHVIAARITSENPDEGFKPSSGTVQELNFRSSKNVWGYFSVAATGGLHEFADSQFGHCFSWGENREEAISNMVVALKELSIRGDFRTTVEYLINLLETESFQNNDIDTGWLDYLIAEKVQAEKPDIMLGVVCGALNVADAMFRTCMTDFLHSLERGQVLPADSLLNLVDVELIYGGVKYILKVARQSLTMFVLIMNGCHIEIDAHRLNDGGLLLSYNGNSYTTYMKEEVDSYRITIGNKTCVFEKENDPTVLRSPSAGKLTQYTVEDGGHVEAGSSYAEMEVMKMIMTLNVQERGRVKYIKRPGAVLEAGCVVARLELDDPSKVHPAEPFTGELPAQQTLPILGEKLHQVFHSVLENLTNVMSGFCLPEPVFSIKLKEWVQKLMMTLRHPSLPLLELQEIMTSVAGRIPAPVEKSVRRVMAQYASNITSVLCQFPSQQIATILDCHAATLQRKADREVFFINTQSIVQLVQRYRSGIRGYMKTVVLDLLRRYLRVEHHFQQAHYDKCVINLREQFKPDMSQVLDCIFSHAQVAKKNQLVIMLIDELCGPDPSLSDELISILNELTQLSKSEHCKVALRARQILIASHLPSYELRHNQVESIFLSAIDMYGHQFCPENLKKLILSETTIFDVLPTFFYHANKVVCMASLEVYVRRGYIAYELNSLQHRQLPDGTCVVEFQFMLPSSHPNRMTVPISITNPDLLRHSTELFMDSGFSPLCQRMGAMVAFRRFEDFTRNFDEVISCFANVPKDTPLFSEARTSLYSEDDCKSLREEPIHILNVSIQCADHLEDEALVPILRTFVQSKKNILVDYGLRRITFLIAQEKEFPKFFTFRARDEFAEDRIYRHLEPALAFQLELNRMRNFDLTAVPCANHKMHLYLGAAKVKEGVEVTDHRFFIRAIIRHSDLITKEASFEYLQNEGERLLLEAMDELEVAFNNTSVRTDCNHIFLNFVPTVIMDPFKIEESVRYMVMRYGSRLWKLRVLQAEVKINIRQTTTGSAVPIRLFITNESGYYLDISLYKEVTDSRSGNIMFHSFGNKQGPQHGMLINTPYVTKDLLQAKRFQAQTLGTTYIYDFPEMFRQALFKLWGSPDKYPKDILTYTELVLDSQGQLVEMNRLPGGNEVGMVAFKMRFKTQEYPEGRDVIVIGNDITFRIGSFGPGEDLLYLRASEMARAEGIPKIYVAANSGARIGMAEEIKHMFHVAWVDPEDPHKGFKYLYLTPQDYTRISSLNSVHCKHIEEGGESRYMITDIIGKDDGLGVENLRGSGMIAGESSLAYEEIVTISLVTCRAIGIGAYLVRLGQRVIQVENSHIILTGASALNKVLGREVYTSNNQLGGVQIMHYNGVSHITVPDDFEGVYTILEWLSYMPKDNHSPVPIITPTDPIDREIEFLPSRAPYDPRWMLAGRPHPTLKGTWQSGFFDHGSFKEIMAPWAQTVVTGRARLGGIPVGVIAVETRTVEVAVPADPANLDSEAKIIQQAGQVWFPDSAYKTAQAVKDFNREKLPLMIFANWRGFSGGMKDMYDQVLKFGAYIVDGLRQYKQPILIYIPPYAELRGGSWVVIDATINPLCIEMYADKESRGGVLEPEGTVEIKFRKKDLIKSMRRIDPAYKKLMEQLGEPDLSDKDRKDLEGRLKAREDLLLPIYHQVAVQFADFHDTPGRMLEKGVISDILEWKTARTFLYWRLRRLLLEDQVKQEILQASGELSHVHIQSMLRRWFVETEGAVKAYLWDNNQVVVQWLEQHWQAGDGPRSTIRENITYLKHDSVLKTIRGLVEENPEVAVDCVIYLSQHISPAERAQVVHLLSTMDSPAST

Row | SMILES | IC50
1 | CC(C)OC(=O)c1ccc(NS(=O)(=O)c2ccc3[nH]c(-c4ccc(CNCc5ccccc5)cc4)nc3c2)cc1 [Example 560, isopropyl 4-(2-(4-((benzylamino)methyl)phenyl)-1H-benzo[d]imidazole-5-sulfonamdo)benzoate] | 397 nM
2 | CC(C)OC(=O)c1ccc(NS(=O)(=O)c2ccc3[nH]c(-c4ccc(CN5CCN(C)CC5)cc4)nc3c2)cc1 [Example 561, isopropyl 4-(2-(4-((4-methylpiperazin-1-yl)methyl)phenyl)-1H-benzo[d]imidazole-5-sulfonamido)benzoate] | 316 nM
3 | CC(C)OC(=O)c1ccc(NS(=O)(=O)c2ccc3[nH]c(-c4ccc(CN5CCOCC5)cc4)nc3c2)cc1 [Example 562, isopropyl 4-(2-(4-(morpholinomethyl)phenyl)-1H-benzo[d]imidazole-5-sulfonamido)benzoate] | 676 nM
4 | COc1ccc(CNCc2ccc(-c3nc4cc(S(=O)(=O)Nc5ccc(C(=O)OC(C)C)cc5)ccc4[nH]3)cc2)cc1OC [Example 563, isopropyl 4-(2-(4-((3,4-dimethoxybenzylamino)methyl)phenyl)-1H-benzo[d]imidazole-5-sulfonamido)benzoate] | 351 nM
5 | CC(C)N(C)C(=O)[C@H]1CC[C@H](NS(=O)(=O)c2ccc3[nH]c(-c4ccc(N5CCN(C)CC5)cc4)nc3c2)CC1 [Example 564, (1r,4r)-N-isopropyl-N-methyl-4-(2-(4-(4-methylpiperazin-1-yl)phenyl)-1H-benzo[d]imidazole-5-sulfonamido)cyclohexanecarboxamide] | 27 nM
6 | CCCN(C)C(=O)[C@H]1CC[C@H](NS(=O)(=O)c2ccc3[nH]c(-c4ccc(N5CCN(C)CC5)cc4)nc3c2)CC1 [Example 565, (1r,4r)-N-methyl-4-(2-(4-(4-methylpiperazin-1-yl)phenyl)-1H-benzo[d]imidazole-5-sulfonamido)-N-propylcyclohexanecarboxamide] | 48 nM
7 | C[C@@H](NC(=O)[C@H]1CC[C@H](NS(=O)(=O)c2ccc3[nH]c(Nc4ccccc4)nc3c2)CC1)c1ccccc1 [Example 569, (1r,4R)-4-(2-(phenylamino)-1H-benzo[d]imidazole-5-sulfonamido)-N-((R)-1-phenylethyl)cyclohexanecarboxamide] | < 10 nM
8 | C[C@@H](NC(=O)[C@H]1CC[C@H](NS(=O)(=O)c2ccc3[nH]c(Nc4cccc(C#N)c4)nc3c2)CC1)c1ccccc1 [Example 570, (1r,4R)-4-(2-(3-cyanophenylamino)-1H-benzo[d]imidazole-5-sulfonamido)-N-((R)-1-phenylethyl)cyclohexanecarboxamide] | < 10 nM
9 | C[C@@H](NC(=O)[C@H]1CC[C@H](NS(=O)(=O)c2ccc3[nH]c(Nc4ccc(N5CCOCC5)nc4)nc3c2)CC1)c1ccccc1 [Example 571, (1r,4R)-4-(2-(6-morpholinopyridin-3-ylamino)-1H-benzo[d]imidazole-5-sulfonamido)-N-((R)-1-phenylethyl)cyclohexanecarboxamide] | < 10 nM
10 | CC(=O)c1ccc(Nc2nc3cc(S(=O)(=O)N[C@H]4CC[C@H](C(=O)N[C@H](C)c5ccccc5)CC4)ccc3[nH]2)cc1 [Example 572, (1r,4R)-4-(2-(4-acetylphenylamino)-1H-benzo[d]imidazole-5-sulfonamido)-N-((R)-1-phenylethyl)cyclohexanecarboxamide] | < 10 nM
11 | C[C@@H](NC(=O)[C@H]1CC[C@H](NS(=O)(=O)c2ccc3[nH]c(Nc4ccc(N5CCOCC5)cc4)nc3c2)CC1)c1ccccc1 [Example 574, (1r,4R)-4-(2-(4-morpholinophenylamino)-1H-benzo[d]imidazole-5-sulfonamido)-N-((R)-1-phenylethyl)cyclohexanecarboxamide] | < 10 nM
12 | C[C@@H](NC(=O)C1CCC(NS(=O)(=O)c2ccc3[nH]c(-c4ccccc4)nc3c2)CC1)c1ccccc1 (stereo partly drawn) [Example 580, (1r,4S)-4-(2-phenyl-1H-benzo[d]imidazole-5-sulfonamido)-N-((S)-1-phenylethyl)cyclohexanecarboxamide] | 1740 nM
13 | CN1CCN(c2ccc(-c3nc4cc(S(=O)(=O)N[C@H]5CC[C@H](C(=O)N6CCOCC6)CC5)ccc4[nH]3)cc2)CC1 [Example 583, 2-(4-(4-methylpiperazin-1-yl)phenyl)-N-((1r,4r)-4-(morpholine-4-carbonyl)cyclohexyl)-1H-benzo[d]imidazole-5-sulfonamide] | 55 nM
14 | O=C([C@H]1CC[C@H](NS(=O)(=O)c2ccc3[nH]c(Nc4ccccc4)nc3c2)CC1)N1CCOCC1 [Example 584, N-((1r,4r)-4-(morpholine-4-carbonyl)cyclohexyl)-2-(phenylamino)-1H-benzo[d]imidazole-5-sulfonamide] | 119 nM

Second part, the compound after the results:

Row | IC50 | SMILES
15 | 118 nM | CCCN(C)C(=O)[C@H]1CC[C@H](NS(=O)(=O)c2ccc3[nH]c(Nc4ccccc4)nc3c2)CC1 [Example 566, (1r,4r)-N-methyl-4-(2-(phenylamino)-1H-benzo[d]imidazole-5-sulfonamido)-N-propylcyclohexanecarboxamide]
16 | 65 nM | CCN(C)C(=O)[C@H]1CC[C@H](NS(=O)(=O)c2ccc3[nH]c(-c4ccc(N5CCN(C)CC5)cc4)nc3c2)CC1 [Example 567, (1r,4r)-N-ethyl-N-methyl-4-(2-(4-(4-methylpiperazin-1-yl)phenyl)-1H-benzo[d]imidazole-5-sulfonamido)cyclohexanecarboxamide]
17 | 126 nM | CCN(C)C(=O)[C@H]1CC[C@H](NS(=O)(=O)c2ccc3[nH]c(Nc4ccccc4)nc3c2)CC1 [Example 568, (1r,4r)-N-ethyl-N-methyl-4-(2-(phenylamino)-1H-benzo[d]imidazole-5-sulfonamido)cyclohexanecarboxamide]
18 | < 10 nM | CC(O)c1ccc(-c2nc3cc(S(=O)(=O)N[C@H]4CC[C@H](C(=O)N[C@H](C)c5ccccc5)CC4)ccc3[nH]2)cc1 (stereo partly drawn) [Example 573, (1r,4R)-4-(2-(4-(1-hydroxyethyl)phenyl)-1H-benzo[d]imidazole-5-sulfonamido)-N-((R)-1-phenylethyl)cyclohexanecarboxamide]
19 | < 10 nM | C[C@@H](NC(=O)[C@H]1CC[C@H](NS(=O)(=O)c2ccc3[nH]c(-c4ccc(N5CCN(C)CC5)cc4)nc3c2)CC1)c1ccccc1 [Example 575, (1r,4R)-4-(2-(4-(4-methylpiperazin-1-yl)phenyl)-1H-benzo[d]imidazole-5-sulfonamido)-N-((R)-1-phenylethyl)cyclohexanecarboxamide]
20 | < 10 nM | C[C@@H](NC(=O)[C@H]1CC[C@H](NS(=O)(=O)c2ccc3[nH]c(-c4ccc(CN5CCN(C)CC5)cc4)nc3c2)CC1)c1ccccc1 [Example 576, (1r,4R)-4-(2-(4-((4-methylpiperazin-1-yl)methyl)phenyl)-1H-benzo[d]imidazole-5-sulfonamido)-N-((R)-1-phenylethyl)cyclohexanecarboxamide]
21 | 15 nM | C[C@@H](NC(=O)[C@H]1CC[C@H](NS(=O)(=O)c2ccc3[nH]c(-c4ccc(CN5CCOCC5)cc4)nc3c2)CC1)c1ccccc1 [Example 577, (1r,4R)-4-(2-(4-(morpholinomethyl)phenyl)-1H-benzo[d]imidazole-5-surfonamido)-N-((R)-1-phenylethyl)cyclohexanecarboxamide]
22 | 61 nM | C[C@H](c1ccccc1)N(C)C(=O)[C@H]1CC[C@H](NS(=O)(=O)c2ccc3[nH]c(-c4ccccc4)nc3c2)CC1 [Example 578, (1r,4R)-N-methyl-4-(2-phenyl-1H-benzo[d]imidazole-5-sulfonamido)-N-((R)-1-phenylethyl)cyclohexanecarboxamide]
23 | 10 nM | O=C(N[C@H](CO)c1ccccc1)[C@H]1CC[C@H](NS(=O)(=O)c2ccc3[nH]c(-c4ccccc4)nc3c2)CC1 [Example 579, (1r,4S)-N-((S)-2-hydroxy-1-phenylethyl)-4-(2-phenyl-1H-benzo[d]imidazole-5-sulfonamido)cyclohexanecarboxamide]
24 | 309 nM | O=C(NC1(c2ccccc2)CC1)[C@H]1CC[C@H](NS(=O)(=O)c2ccc3[nH]c(-c4ccccc4)nc3c2)CC1 [Example 581, (1r,4r)-4-(2-phenyl-1H-benzo[d]imidazole-5-sulfonamido)-N-(1-phenylcyclopropyl)cyclohexanecarboxamide]
25 | 250 nM | CC(C)(NC(=O)[C@H]1CC[C@H](NS(=O)(=O)c2ccc3[nH]c(-c4ccccc4)nc3c2)CC1)c1ccccc1 [Example 582, (1r,4r)-4-(2-phenyl-1H-benzo[d]imidazole-5-sulfonamido)-N-(2-phenylpropan-2-yl)cyclohexanecarboxamide]
26 | 781 nM | CC(C)(C)c1nnc([C@H]2CC[C@H](NS(=O)(=O)c3ccc4[nH]c(-c5ccccc5)nc4c3)CC2)o1 [Example 585, N-((1r,4r)-4-(5-tert-butyl-1,3,4-oxadiazol-2-yl)cyclohexyl)-2-phenyl-1H-benzo[d]imidazole-5-sulfonamide]
27 | 1300 nM | CC(C)c1nnc([C@H]2CC[C@H](NS(=O)(=O)c3ccc4[nH]c(-c5ccccc5)nc4c3)CC2)o1 [Example 586, N-((1r,4r)-4-(5-isopropyl-1,3,4-oxadiazol-2-yl)cyclohexyl)-2-phenyl-1H-benzo[d]imidazole-5-sulfonamide]
28 | 294 nM | CC(C)c1nnc([C@H]2CC[C@H](NS(=O)(=O)c3ccc4[nH]c(-c5ccc(N6CCN(C)CC6)cc5)nc4c3)CC2)o1 [Example 587, N-((1r,4r)-4-(5-isopropyl-1,3,4-oxadiazol-2-yl)cyclohexyl)-2-(4-(4-methylpiperazin-1-yl)phenyl)-1H-benzo[d]imidazole-5-sulfonamide]
29 | 267 nM | CC(C)(C)c1nnc([C@H]2CC[C@H](NS(=O)(=O)c3ccc4[nH]c(-c5ccc(N6CCOCC6)cc5)nc4c3)CC2)o1 [Example 588, N-((1r,4r)-4-(5-tert-butyl-1,3,4-oxadiazol-2-yl)cyclohexyl)-2-(4-morpholinophenyl)-1H-benzo[d]imidazole-5-sulfonamide]

Reference: US8697739B2, “Bicyclic acetyl-CoA carboxylase inhibitors and uses thereof” (Novartis AG, priority 2010, dated 2014)
